In patent US20080234262A1 (Wyeth, priority 2007, published 2008):
Like-named read-outs stand apart in the source and are kept apart here.

What was measured:
Human mTOR (FLAG-TOR) = target: T1, Human mTOR (FLAG-TOR) (Homo sapiens, UniProt P42345); test: Human mTOR kinase assay with purified enzyme, DELFIA format; assay type: biochemical
T1 construct: FLAG

PI3K = PI3K (Homo sapiens, UniProt P42336); test: Fluorescence polarization assay for PI3K; assay type: biochemical; details: PI3Kα, read-out: PI3Kα IC50;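 note: PI3K kinase reaction on PIP2 with ATP, 30-60 min, product sensed by GST-GRP with red probe in fluorescence polarization (mP), controls without enzyme and at zero time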
prostate line LNCap = test: In vitro cell culture growth assay (MTS), LNCap; assay type: cell-based, human; details: Homo sapiens, LNCaP, 72 h, LNCap cells, three days after drug treatment;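 note: viable cell density read by absorbance at 490 nm, growth expressed as percent of vehicle-treated cells on the same plate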
breast line MDA468 = test: In vitro cell culture growth assay (MTS), MDA468; assay type: cell-based, human; details: Homo sapiens, 72 h, MDA468 cells, three days after drug treatment
Procedure, shortened: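 Growth measured as percent of same-plate vehicle control by MTS metabolic dye conversion (A490). Breast MDA468 and prostate LNCap cells, plated a day ahead, were exposed to compounds for 3 days.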

Chain of PI3K (P42336 whole entry): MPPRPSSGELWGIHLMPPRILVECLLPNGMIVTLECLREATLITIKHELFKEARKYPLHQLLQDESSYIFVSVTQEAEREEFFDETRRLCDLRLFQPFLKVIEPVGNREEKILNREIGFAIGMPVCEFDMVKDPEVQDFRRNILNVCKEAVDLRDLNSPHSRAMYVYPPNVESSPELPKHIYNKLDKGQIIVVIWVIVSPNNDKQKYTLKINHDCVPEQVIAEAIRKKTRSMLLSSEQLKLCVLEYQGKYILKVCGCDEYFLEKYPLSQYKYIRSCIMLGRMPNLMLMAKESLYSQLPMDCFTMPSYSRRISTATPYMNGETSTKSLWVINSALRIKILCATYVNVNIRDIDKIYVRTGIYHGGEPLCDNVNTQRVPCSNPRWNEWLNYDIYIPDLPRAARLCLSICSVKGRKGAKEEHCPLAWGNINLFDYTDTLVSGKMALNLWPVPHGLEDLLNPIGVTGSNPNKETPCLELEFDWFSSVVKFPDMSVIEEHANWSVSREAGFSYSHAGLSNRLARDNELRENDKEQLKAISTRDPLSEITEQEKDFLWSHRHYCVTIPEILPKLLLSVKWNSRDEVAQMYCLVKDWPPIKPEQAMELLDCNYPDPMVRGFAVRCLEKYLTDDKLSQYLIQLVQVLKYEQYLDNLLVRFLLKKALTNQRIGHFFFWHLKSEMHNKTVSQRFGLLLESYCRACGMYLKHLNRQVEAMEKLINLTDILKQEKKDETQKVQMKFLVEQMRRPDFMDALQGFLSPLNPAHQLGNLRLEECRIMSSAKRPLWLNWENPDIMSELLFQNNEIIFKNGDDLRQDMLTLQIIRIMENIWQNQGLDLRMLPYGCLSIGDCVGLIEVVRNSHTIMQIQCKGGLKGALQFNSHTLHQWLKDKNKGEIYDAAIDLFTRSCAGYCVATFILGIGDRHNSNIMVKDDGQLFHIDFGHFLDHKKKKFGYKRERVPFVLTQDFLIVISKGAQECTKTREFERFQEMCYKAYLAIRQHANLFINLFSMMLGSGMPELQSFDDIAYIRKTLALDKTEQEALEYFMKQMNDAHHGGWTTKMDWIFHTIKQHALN
Chain of PI3K (P27986 whole entry partner): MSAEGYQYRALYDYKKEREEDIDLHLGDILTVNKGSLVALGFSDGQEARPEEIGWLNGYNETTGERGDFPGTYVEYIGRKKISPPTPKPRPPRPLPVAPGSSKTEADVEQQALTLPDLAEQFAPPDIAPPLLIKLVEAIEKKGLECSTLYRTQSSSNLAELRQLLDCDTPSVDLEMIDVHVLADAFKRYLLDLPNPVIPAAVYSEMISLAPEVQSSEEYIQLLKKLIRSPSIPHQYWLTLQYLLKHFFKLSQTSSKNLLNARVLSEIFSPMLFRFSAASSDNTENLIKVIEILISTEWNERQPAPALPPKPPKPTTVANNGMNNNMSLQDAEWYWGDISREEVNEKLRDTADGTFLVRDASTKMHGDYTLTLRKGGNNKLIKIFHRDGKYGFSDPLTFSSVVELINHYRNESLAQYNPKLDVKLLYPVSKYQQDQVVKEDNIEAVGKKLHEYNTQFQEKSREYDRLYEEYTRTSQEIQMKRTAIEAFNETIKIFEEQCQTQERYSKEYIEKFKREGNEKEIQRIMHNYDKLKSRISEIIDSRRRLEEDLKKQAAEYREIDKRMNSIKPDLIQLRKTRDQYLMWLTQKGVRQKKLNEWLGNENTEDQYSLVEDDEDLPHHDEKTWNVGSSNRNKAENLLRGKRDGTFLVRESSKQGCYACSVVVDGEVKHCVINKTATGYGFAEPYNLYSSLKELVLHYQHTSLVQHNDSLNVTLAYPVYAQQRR

| IC50 (PI3K) | IC50 (PI3K; listed as 74) | IC50 (prostate line LNCap) | Compound | IC50 (Human mTOR (FLAG-TOR)) | IC50 (breast line MDA468) |
| --- | --- | --- | --- | --- | --- |
| 9.13 µM |  |  | 1-(4-{4-(2-hydroxymorpholin-4-yl)-1-[1-(pyridin-3-ylmethyl)piperidin-4-yl]-1H-pyrazolo[3,4-d]pyrimidin-6-yl}phenyl)-3-methylurea [Example 61] | 0.3 µM |  |
|  |  |  | 4-(4-morpholin-4-yl-1-phenyl-1H-pyrazolo[3,4-d]pyrimidin-6-yl)aniline [Example 10] | 0.215 µM |  |
| 1.75 µM |  |  | 1-(2-Fluoro-ethyl)-3-(4-{1-[1-(4-hydroxy-butyl)-piperidin-4-yl]-4-morpholin-4-yl-1H-pyrazolo[3,4-d]pyrimidin-6-yl}-phenyl)-urea [Example 54] | 0.029 µM |  |
| 1.43 µM |  |  | 1-Ethyl-3-(4-{1-[1-(4-hydroxy-butyl)-piperidin-4-yl]-4-morpholin-4-yl-1H-pyrazolo[3,4-d]pyrimidin-6-yl}-phenyl)-urea [Example 52] | 0.0115 µM |  |
| 8.2 µM |  |  | 5-[1-(1-Benzyl-piperidin-4-yl)-4-morpholin-4-yl-1H-pyrazolo[3,4-d]pyrimidin-6-yl]-1,3-dihydro-benzoimidazol-2-one [Example 35] | 0.13 µM |  |
| 8.77 µM | 8.57 µM |  | 4-(6-(3-hydroxyphenyl)-1-phenyl-1H-pyrazolo[3,4-d]pyrimidin-4-yl)morpholin-3-one [Example 73] | 0.38 µM |  |
| 0.098 µM |  | 0.5 µM | O=C(C1CC1)N1CCC(n2ncc3c(N4CCOCC4)nc(-c4cccc(O)c4)nc32)CC1 [Example 21] |  | 1.4 µM |
| 0.168 µM |  | 1.2 µM | CCOC(=O)N1CCC(n2ncc3c(N4CCOCC4)nc(-c4ccc(Nc5ncc[nH]5)cc4)nc32)CC1 [Compound 887, ethyl 4-{6-[4-(1H-imidazol-2-ylamino)phenyl]-4-morpholin-4-yl-1H-pyrazolo[3,4-d]pyrimidin-1-yl}piperidine-1-carboxylate] |  | 2.3 µM |
| 0.01 µM |  | 0.034 µM | O=C(Nc1ccc(-c2nc(N3CCOCC3)c3cnn(C4CCN(Cc5cccnc5)CC4)c3n2)cc1)Nc1ccsc1 [Compound 620, 1-(4-{4-morpholin-4-yl-1-[1-(pyridin-3-ylmethyl)piperidin-4-yl]-1H-pyrazolo[3,4-d]pyrimidin-6-yl}phenyl)-3-(3-thienyl)urea] |  | 0.13 µM |
| 0.344 µM |  | 20.1 µM | N#CN=C(N)Nc1ccc(-c2nc(N3CCOCC3)c3cnn(C4CCN(C(=O)c5cccnc5)CC4)c3n2)cc1 [Example 411, 2-cyano-1-(4-{4-morpholin-4-yl-1-[1-(pyridin-3-ylcarbonyl)piperidin-4-yl]-1H-pyrazolo[3,4-d]pyrimidin-6-yl}phenyl)guanidine] |  | 12 µM |
| 0.485 µM |  | 0.23 µM | CCNC(=O)Nc1ccc(-c2nc(N3CCOCC3)c3cnn(C4CCN(Cc5ccccc5)CC4)c3n2)cc1F [Example 349, 1-{4-[1-(1-benzylpiperidin-4-yl)-4-morpholin-4-yl-1H-pyrazolo[3,4-d]pyrimidin-6-yl]-2-fluorophenyl}-3-ethylurea] |  | 2.5 µM |
| 1.96 µM |  | 2.25 µM | CNC(=O)N1CCC(n2ncc3c(N4CCOCC4)nc(-c4ccc(NC(=O)OC)cc4)nc32)CC1 [Compound 813, methyl (4-{1-[1-(methylcarbamoyl)piperidin-4-yl]-4-morpholin-4-yl-1H-pyrazolo[3,4-d]pyrimidin-6-yl}phenyl)carbamate] |  | 4.4 µM |
| 2.04 µM |  | 5.2 µM | COC(=O)N1CCC(n2ncc3c(N4CCOCC4)nc(-c4ccc(NC(=O)OCCN5CCOCC5)cc4)nc32)CC1 [Compound 906, methyl 4-[4-morpholin-4-yl-6-(4-{[(2-morpholin-4-ylethoxy)carbonyl]amino}phenyl)-1H-pyrazolo[3,4-d]pyrimidin-1-yl]piperidine-1-carboxylate] |  | 23 µM |
| 0.04 µM |  | < 0.027 µM | CCOC(=O)N1CCC(n2ncc3c(N4CCOCC4)nc(-c4ccc(NC(=O)Nc5ccncc5)cc4)nc32)CC1 [Compound 817, ethyl 4-(4-morpholin-4-yl-6-{4-[(pyridin-4-ylcarbamoyl)amino]phenyl}-1H-pyrazolo[3,4-d]pyrimidin-1-yl)piperidine-1-carboxylate] |  | < 0.027 µM |
| 0.026 µM |  | 2.5 µM | Oc1cccc(-c2nc(N3CCOCC3)c3cn[nH]c3n2)c1 [Example 204, 3-(4-morpholin-4-yl-1H-pyrazolo[3,4-d]pyrimidin-6-yl)phenol] |  | 8 µM |

| Compound | IC50 (PI3K) | IC50 (PI3K; listed as 74) | IC50 (prostate line LNCap) | IC50 (Human mTOR (FLAG-TOR)) | IC50 (breast line MDA468) |
| --- | --- | --- | --- | --- | --- |
| 4-{6-[4-(2,3-Dimethyl-isothioureido)-phenyl]-4-morpholin-4-yl-pyrazolo[3,4-d]pyrimidin-1-yl}-piperidine-1-carboxylic acid isopropyl ester [Example 57] | 1.7 µM |  |  | 0.118 µM |  |
| 3-[4-(1,4-oxazepan-4-yl)-1-phenyl-1H-pyrazolo[3,4-d ]pyrimidin-6-yl]phenol [Example 75] | 10 µM |  |  | ≥ 20 µM |  |
| 3-(4-Morpholin-4-yl-1-piperidin-4-yl-1H-pyrazolo[3,4-d]pyrimidin-6-yl)-phenol [Example 5] | 0.44 µM |  |  | 0.24 µM |  |
| 1-{4-[1-(1-Benzyl-piperidin-4-yl)-4-morpholin-4-yl-1H-pyrazolo[3,4-d]pyrimidin-6-yl]-phenyl}-3-methyl-thiourea [Example 34] | 1.11 µM |  |  | 1.2 µM |  |
